Results on 15 compounds are retold here after patent US10538555B2, “Macrocyclic inhibitors of the PD-1/PD-L1 and CD80(B7-1)/PD-L1 protein/protein interactions” (BRISTOL-MYERS SQUIBB COMPANY, priority 2014, dated 2020).

For the assay, the target named is T1, Human PD-L1/PD-1 (Homo sapiens, UniProt Q9NZQ7).
T1 construct: TVMV protease cleavage site (C); made in house; host or cells: HEK293T cells
As to the kind of experiment: HTRF Human PD-L1/PD-1 binding assay (PD-1-Ig/PD-L1-His). The following applies: PD-L1-His 10 nM, PD-1-Ig 20 nM. In outline:
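Truncated Fc-fused human PD-1 (aa 25-167) at 20 nM and His-tagged PD-L1 (aa 18-239) at 10 nM final are used, with peptides preincubated 15 min with PD-L1. Detection uses europium-cryptate anti-Ig and APC anti-His antibodies; 665/620 nm ratio.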
For orientation: Time-resolved FRET reads energy transfer from a long-lived donor to a nearby acceptor.

Setting [1] is: class symbol, read-out: HTRF Human PD-L1/PD-1 Binding Assay IC50 Range.
Setting [2] is: read-out: HTRF Human PD-L1/PD-1 Binding Assay IC50.

Like-named read-outs stand apart in the source and are kept apart here. *1 amine or outer side, *2 acyl side, *3 side chain or, on linkers, in order; H or OH if unused. Where a SMILES comes first, the peptide text is derived from it. Bridges are numbered along the chain shown (N, C = ends). [ ]: non-standard residue; d: D form. Phe(3,4,5-F3) = N[C@@H](Cc1cc(F)c(F)c(F)c1)C(=O)O; Phe(4-CH2NH2) = NCc1ccc(C[C@H](N)C(=O)O)cc1; Morpholine(3S-CO) = O=C(O)[C@@H]1COCCN1; Pro(4R-NH2) = N[C@H]1CN[C@H](C(=O)O)C1; d(cisHyp) = O=C(O)[C@H]1C[C@@H](O)CN1; Hyp = O=C(O)[C@@H]1C[C@@H](O)CN1; NMeF = CN[C@@H](Cc1ccccc1)C(=O)O; Pip(4-aza) = O=C(O)[C@@H]1CNCCN1; X1 = O=C([C@H]1COCCN1[*:1])[*:2]; hPhe = N[C@@H](CCc1ccccc1)C(=O)O; αMeF = C[C@](N)(Cc1ccccc1)C(=O)O; NMeNle = CCCC[C@H](NC)C(=O)O; Tle = CC(C)(C)[C@H](N)C(=O)O; Pip = O=C(O)[C@@H]1CCCCN1; dPip = O=C(O)[C@H]1CCCCN1; Orn = NCCC[C@H](N)C(=O)O; dNMeA = CN[C@H](C)C(=O)O; Aze = O=C(O)[C@@H]1CCN1; Sar = CNCC(=O)O

T1 sequence (Q9NZQ7 with tags, fused parts or gaps): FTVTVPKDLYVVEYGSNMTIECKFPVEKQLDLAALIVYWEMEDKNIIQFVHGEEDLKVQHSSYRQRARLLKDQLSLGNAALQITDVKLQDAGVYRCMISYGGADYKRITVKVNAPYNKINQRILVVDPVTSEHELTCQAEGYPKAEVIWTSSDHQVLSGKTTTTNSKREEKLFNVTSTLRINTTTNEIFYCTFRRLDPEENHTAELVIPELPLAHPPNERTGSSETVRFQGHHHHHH

With `CCCC[C@H]1C(=O)N(C)CC(=O)N[C@@H](CC(N)=O)C(=O)N[C@@H](C(C)C)C(=O)N(C)[C@@H](Cc2ccccc2)C(=O)N[C@@H](CC(=O)O)C(=O)N(C)CC(=O)N[C@@H](Cc2c[nH]c3ccccc23)C(=O)N[C@@H](Cc2ccc(CN)cc2)C(=O)N[C@@H](CC(C)C)C(=O)N[C@H](C(=O)NCC(N)=O)CSCC(=O)N[C@@H](Cc2ccccc2)C(=O)N(C)[C@@H](Cc2ccccc2)C(=O)N1C` [Example 3212] ({CH2CO}-F[NMeF][NMeNle][Sar]NV[NMeF]D[Sar]W[Phe(4-CH2NH2)]LCG-NH2; thioether N-13), the IC50 under setting [1] fell in the range of 10 to 99.9 nM.
For `CCCC[C@H]1C(=O)N2C[C@H](O)C[C@@H]2C(=O)N2C[C@H](N)C[C@H]2C(=O)N[C@@H](C(C)C)C(=O)N(C)[C@@H](Cc2ccccc2)C(=O)N[C@@H](CCC(=O)O)C(=O)N2CCOC[C@@H]2C(=O)N[C@@H](Cc2c[nH]c3ccccc23)C(=O)N[C@@H](Cc2ccc(O)cc2)C(=O)N[C@@H](CC(C)C)C(=O)N[C@H](C(=O)NCC(N)=O)CSCC(=O)N[C@@H](Cc2cc(F)c(F)c(F)c2)C(=O)N(C)[C@@H](Cc2ccccc2)C(=O)N1C` [Example 3216] ({CH2CO}-[Phe(3,4,5-F3)][NMeF][NMeNle][d(cisHyp)][Pro(4R-NH2)]V[NMeF]E[X1]WYLCG-NH2; thioether N-13), the IC50 under setting [1] was 10 to 99.9 nM.
For `CCCC[C@H]1C(=O)N2CCC[C@@H]2C(=O)N2CCCC[C@H]2C(=O)N[C@@H](C(C)C)C(=O)N(C)[C@@H](Cc2ccccc2)C(=O)N[C@@H](Cc2ccc(O)cc2)C(=O)N2CCCC[C@@H]2C(=O)N[C@@H](Cc2c[nH]c3ccccc23)C(=O)N[C@@H](Cc2ccc(O)cc2)C(=O)N[C@@H](CC(C)C)C(=O)N[C@H](C(=O)NCC(N)=O)CSCC(=O)N[C@@H](Cc2cc(F)c(F)c(F)c2)C(=O)N(C)[C@@H](Cc2ccccc2)C(=O)N1C` [Example 3217] ({CH2CO}-[Phe(3,4,5-F3)][NMeF][NMeNle][dP][Pip]V[NMeF]Y[dPip]WYLCG-NH2; thioether N-13), the IC50 under setting [1] is 10 to 99.9 nM.
On the same count and under the same terms, then `CCCC[C@H]1C(=O)N2CCC[C@@H]2C(=O)N2CCNC[C@H]2C(=O)N[C@@H](C(C)C)C(=O)N(C)[C@@H](Cc2ccccc2)C(=O)N[C@@H](Cc2ccc(O)cc2)C(=O)N2CCCC[C@@H]2C(=O)N[C@@H](Cc2c[nH]c3ccccc23)C(=O)N[C@@H](Cc2ccc(O)cc2)C(=O)N[C@@H](CC(C)C)C(=O)N[C@H](C(=O)NCC(N)=O)CSCC(=O)N[C@@H](Cc2cc(F)c(F)c(F)c2)C(=O)N(C)[C@@H](Cc2ccccc2)C(=O)N1C` [Example 3218] ({CH2CO}-[Phe(3,4,5-F3)][NMeF][NMeNle][dP][Pip(4-aza)]V[NMeF]Y[dPip]WYLCG-NH2; thioether N-13), with 1 to 9.9 nM; and `CCCC[C@H]1C(=O)N2CCC[C@@H]2C(=O)N2CCOC[C@H]2C(=O)N[C@@H](C(C)C)C(=O)N(C)[C@@H](Cc2ccccc2)C(=O)N[C@@H](Cc2ccc(O)cc2)C(=O)N2CCCC[C@@H]2C(=O)N[C@@H](Cc2c[nH]c3ccccc23)C(=O)N[C@@H](Cc2ccc(O)cc2)C(=O)N[C@@H](CC(C)C)C(=O)N[C@H](C(=O)NCC(N)=O)CSCC(=O)N[C@@H](Cc2cc(F)c(F)c(F)c2)C(=O)N(C)[C@@H](Cc2ccccc2)C(=O)N1C` [Example 3219] ({CH2CO}-[Phe(3,4,5-F3)][NMeF][NMeNle][dP][Morpholine(3S-CO)]V[NMeF]Y[dPip]WYLCG-NH2; thioether N-13), with 10 to 99.9 nM.
The same measure, in the same setting: then `CCCC[C@H]1C(=O)N2CCC[C@@H]2C(=O)N[C@@H](CC(=O)O)C(=O)N[C@@H](C(C)C)C(=O)N[C@@](C)(Cc2ccccc2)C(=O)N[C@@H](Cc2ccc(O)cc2)C(=O)N2CCCC[C@@H]2C(=O)N[C@@H](Cc2c[nH]c3ccccc23)C(=O)N[C@@H](Cc2ccc(O)cc2)C(=O)N[C@@H](CC(C)C)C(=O)N[C@H](C(=O)NCC(N)=O)CSCC(=O)N[C@@H](Cc2ccccc2)C(=O)N(C)[C@@H](Cc2ccccc2)C(=O)N1C` [Example 3220] ({CH2CO}-F[NMeF][NMeNle][dP]DV[αMeF]Y[dPip]WYLCG-NH2; thioether N-13), with 10 to 99.9 nM; and `CCCC[C@H]1C(=O)N2CCC[C@@H]2C(=O)N2CC[C@H]2C(=O)N[C@@H](C(C)C)C(=O)N(C)[C@@H](Cc2ccccc2)C(=O)N[C@@H](Cc2ccc(O)cc2)C(=O)N2CCCC[C@@H]2C(=O)N[C@@H](Cc2c[nH]c3ccccc23)C(=O)N[C@@H](Cc2ccc(O)cc2)C(=O)N[C@@H](CC(C)C)C(=O)N[C@H](C(=O)NCC(N)=O)CSCC(=O)N[C@@H](Cc2cc(F)c(F)c(F)c2)C(=O)N(C)[C@@H](Cc2ccccc2)C(=O)N1C` [Example 3221] ({CH2CO}-[Phe(3,4,5-F3)][NMeF][NMeNle][dP][Aze]V[NMeF]Y[dPip]WYLCG-NH2; thioether N-13), with 10 to 99.9 nM.
`CCCC[C@H]1C(=O)N2CCC[C@@H]2C(=O)N[C@@H](CC(=O)O)C(=O)N[C@@H](C(C)(C)C)C(=O)N(C)[C@@H](Cc2ccccc2)C(=O)N[C@@H](Cc2ccc(O)cc2)C(=O)N2CCCC[C@@H]2C(=O)N[C@@H](Cc2c[nH]c3ccccc23)C(=O)N[C@@H](Cc2ccc(O)cc2)C(=O)N[C@@H](CC(C)C)C(=O)N[C@H](C(=O)NCC(N)=O)CSCC(=O)N[C@@H](Cc2cc(F)c(F)c(F)c2)C(=O)N(C)[C@@H](Cc2ccccc2)C(=O)N1C` [Example 3222] ({CH2CO}-[Phe(3,4,5-F3)][NMeF][NMeNle][dP]D[Tle][NMeF]Y[dPip]WYLCG-NH2; thioether N-13): the IC50 under setting [2] was determined as 4.5 nM.
Regarding `CCCC[C@H]1C(=O)N2CCC[C@@H]2C(=O)N[C@@H](CC(=O)O)C(=O)N[C@@H](C(C)(C)C)C(=O)N(C)[C@@H](Cc2ccccc2)C(=O)N[C@@H](Cc2ccc(O)cc2)C(=O)N2CCOC[C@@H]2C(=O)N[C@@H](Cc2c[nH]c3ccccc23)C(=O)N[C@@H](Cc2ccc(O)cc2)C(=O)N[C@@H](CC(C)C)C(=O)N[C@H](C(=O)NCC(N)=O)CSCC(=O)N[C@@H](Cc2cc(F)c(F)c(F)c2)C(=O)N(C)[C@@H](Cc2ccccc2)C(=O)N1C` [Example 3223] ({CH2CO}-[Phe(3,4,5-F3)][NMeF][NMeNle][dP]D[Tle][NMeF]Y[X1]WYLCG-NH2; thioether N-13), the IC50 under setting [1] is 1 to 9.9 nM.
Turning to `CCCC[C@H]1C(=O)N(C)[C@H](C)C(=O)N[C@@H](CC(=O)O)C(=O)N[C@@H](C(C)C)C(=O)N(C)[C@@H](Cc2ccccc2)C(=O)N[C@@H](Cc2ccc(O)cc2)C(=O)N(C)[C@H](C)C(=O)N[C@@H](Cc2c[nH]c3ccccc23)C(=O)N[C@@H](Cc2ccc(O)cc2)C(=O)N[C@@H](CC(C)C)C(=O)N[C@H](C(=O)NCC(N)=O)CSCC(=O)N[C@@H](Cc2cc(F)c(F)c(F)c2)C(=O)N(C)[C@@H](Cc2ccccc2)C(=O)N1C` [Example 3224] ({CH2CO}-[Phe(3,4,5-F3)][NMeF][NMeNle][dNMeA]DV[NMeF]Y[dNMeA]WYLCG-NH2; thioether N-13), the IC50 under setting [1] fell in the range of 10 to 99.9 nM.
For `CCCC[C@H]1C(=O)N(C)CC(=O)N[C@@H](CC(=O)O)C(=O)N[C@@H]([C@@H](C)O)C(=O)N(C)[C@@H](Cc2ccccc2)C(=O)N[C@@H](Cc2ccc(O)cc2)C(=O)N(C)CC(=O)N[C@@H](Cc2c[nH]c3ccccc23)C(=O)N[C@@H](Cc2ccc(O)cc2)C(=O)N[C@@H](CC(C)C)C(=O)N[C@H](C(=O)NCC(N)=O)CSCC(=O)N[C@@H](Cc2ccccc2)C(=O)N(C)[C@@H](Cc2ccccc2)C(=O)N1C` [Example 3225] ({CH2CO}-F[NMeF][NMeNle][Sar]DT[NMeF]Y[Sar]WYLCG-NH2; thioether N-13), the IC50 under setting [1] was in the range of 1 to 9.9 nM.
Turning to `CCCC[C@H]1C(=O)N(C)CC(=O)N[C@@H](CC(=O)O)C(=O)N[C@@H](CCc2ccccc2)C(=O)N(C)[C@@H](Cc2ccccc2)C(=O)N[C@@H](Cc2ccc(O)cc2)C(=O)N(C)CC(=O)N[C@@H](Cc2c[nH]c3ccccc23)C(=O)N[C@@H](Cc2ccc(O)cc2)C(=O)N[C@@H](CC(C)C)C(=O)N[C@H](C(=O)NCC(N)=O)CSCC(=O)N[C@@H](Cc2ccccc2)C(=O)N(C)[C@@H](Cc2ccccc2)C(=O)N1C` [Example 3226] ({CH2CO}-F[NMeF][NMeNle][Sar]D[hPhe][NMeF]Y[Sar]WYLCG-NH2; thioether N-13), the IC50 under setting [2] came to 1860 nM.
Consider `CCCC[C@H]1C(=O)N2C[C@H](O)C[C@@H]2C(=O)N2C[C@H](N)C[C@H]2C(=O)N[C@@H](C(C)C)C(=O)N(C)[C@@H](Cc2ccccc2)C(=O)N[C@@H](CCC(=O)O)C(=O)N2CCCC[C@@H]2C(=O)N[C@@H](Cc2c[nH]c3ccccc23)C(=O)N[C@@H](Cc2ccc(O)cc2)C(=O)N[C@@H](CC(C)C)C(=O)N[C@H](C(=O)NCC(N)=O)CSCC(=O)N[C@@H](Cc2cc(F)c(F)c(F)c2)C(=O)N(C)[C@@H](Cc2ccccc2)C(=O)N1C` [Example 3227] ({CH2CO}-[Phe(3,4,5-F3)][NMeF][NMeNle][d(cisHyp)][Pro(4R-NH2)]V[NMeF]E[dPip]WYLCG-NH2; thioether N-13), for which, under setting [1], the IC50 was 1 to 9.9 nM.
In the case of `CCCC[C@H]1C(=O)N2C[C@H](O)C[C@@H]2C(=O)N2C[C@H](O)C[C@H]2C(=O)N[C@@H](C(C)C)C(=O)N(C)[C@@H](Cc2ccccc2)C(=O)N[C@@H](CCC(=O)O)C(=O)N2CCCC[C@@H]2C(=O)N[C@@H](Cc2c[nH]c3ccccc23)C(=O)N[C@@H](Cc2ccc(O)cc2)C(=O)N[C@@H](CCCN)C(=O)N[C@H](C(=O)NCC(N)=O)CSCC(=O)N[C@@H](Cc2cc(F)c(F)c(F)c2)C(=O)N(C)[C@@H](Cc2ccccc2)C(=O)N1C` [Example 3228] ({CH2CO}-[Phe(3,4,5-F3)][NMeF][NMeNle][d(cisHyp)][Hyp]V[NMeF]E[dPip]WY[Orn]CG-NH2; thioether N-13), under setting [1], the IC50 is 10 to 99.9 nM.
The same measure, in the same setting: to `CCCC[C@H]1C(=O)N(C)CC(=O)N[C@@H](CC(=O)O)C(=O)N[C@@H](C(C)C)C(=O)N(C)[C@@H](Cc2ccccc2)C(=O)N[C@@H](Cc2c[nH]c3ccccc23)C(=O)N(C)CC(=O)N[C@@H](Cc2c[nH]c3ccccc23)C(=O)N[C@@H](Cc2ccc(O)cc2)C(=O)N[C@@H](CC(C)C)C(=O)N[C@H](C(=O)NCC(N)=O)CSCC(=O)N[C@@H](Cc2ccccc2)C(=O)N(C)[C@@H](Cc2ccccc2)C(=O)N1C` [Example 3231] ({CH2CO}-F[NMeF][NMeNle][Sar]DV[NMeF]W[Sar]WYLCG-NH2; thioether N-13) belongs 1 to 9.9 nM.
